# According to PMC7047428 (ACS Central Science, 2020):
# Experiments:
# D2R WT [1] = biological target: T1, D2R WT (Homo sapiens, UniProt P14416); assay: Split luciferase GloSensor cAMP assay, activation of Gi protein; assay type: cell-based; conditions: for G protein EC50: wild type D2R, HEK 293T, cAMP GloSensor
# D2R WT [2] = biological target: T1, D2R WT; assay: Tango arrestin recruitment assay; assay type: cell-based; conditions: wild type D2R, HTLA cells
# T1 sequence (P14416 whole entry): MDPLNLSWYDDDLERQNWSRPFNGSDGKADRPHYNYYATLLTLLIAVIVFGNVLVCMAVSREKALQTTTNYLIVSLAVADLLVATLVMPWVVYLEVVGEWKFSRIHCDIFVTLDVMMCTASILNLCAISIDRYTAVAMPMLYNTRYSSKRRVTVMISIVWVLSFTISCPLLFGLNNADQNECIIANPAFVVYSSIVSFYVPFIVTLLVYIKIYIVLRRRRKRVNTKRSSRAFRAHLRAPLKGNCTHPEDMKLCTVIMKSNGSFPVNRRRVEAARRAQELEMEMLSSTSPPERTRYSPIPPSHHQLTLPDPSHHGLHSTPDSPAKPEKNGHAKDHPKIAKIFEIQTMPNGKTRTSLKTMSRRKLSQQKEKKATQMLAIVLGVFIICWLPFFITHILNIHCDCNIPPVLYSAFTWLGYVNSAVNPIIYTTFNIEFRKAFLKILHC
SMILES,G protein EC50 (D2R WT [1]),β-arrestin EC50 (D2R WT [2]),EC50 (D2R WT [1])
"Oc1c(CN2CCN(c3ccccn3)CC2)cc(Br)c2cccnc12 [MLS-d3, 5-Bromo-7-((4-(pyridin-2-yl)piperazin-1-yl)methyl)quinolin-8-ol]",completely inactive,completely inactive,
"Oc1c(CN2CCN(c3ccccn3)CC2)ccc2cccnc12 [MLS-d2, 7-((4-(Pyridin-2-yl)piperazin-1-yl)methyl)quinolin-8-ol]",,,0.095 µM
"Oc1c(CN2CCN(c3ccccn3)CC2)cc(F)c2cccnc12 [MLS-d1, 5-Fluoro-7-((4-(pyridin-2-yl)piperazin-1-yl)methyl)quinolin-8-ol]",,,0.0186 µM
"O=[N+]([O-])c1cc(CN2CCN(c3ccccn3)CC2)c(O)c2ncccc12 [MLS-d4, 5-Nitro-7-((4-(pyridin-2-yl)piperazin-1-yl)methyl)quinolin-8-ol]",did not show activation,did not show activation,
